This passage reports melting point results from a melting point compilation (Tetko et al.; mined from patent text by program, amines drawn as free bases though some values may be those of a salt).

Structures are written as SMILES.

What is called melting point is the temperature of the solid-liquid transition.

For the compound `CC(=O)Oc1ccc2c(c1)Cc1cc(C(C)=O)ccc1-2`, the melting point fell in the range of 126 to 128 °C.
Next, `COc1cc2c(cc1N)CCCC2`: 121 °C; `CCOC(=O)C1=C(C)NC(C)=C(C(=O)OCC)C1c1c(C)sc2ccccc12`: 191 to 193 °C.
`CC(C)(C)NC(=O)c1nn(-c2ccc(C(C)(C)C)cc2)c2c1C1CCC2C1` (stereo not drawn) registered a melting point of 148 to 150 °C.
The value for `OC(Cn1cncn1)(c1ccc(Cl)cc1)C(F)(F)F` (stereo not drawn) was 117 to 118 °C; that for `CC(=O)c1ccc(C#Cc2ccc(C(C)=O)s2)s1` was 214 °C.
Regarding `Cn1ncnc1COc1nn2c(-c3c(F)cccc3F)nncc2c1-c1ccccc1`, the melting point amounted to 179 °C.
`O=C(NC1CCc2ccccc2C1=O)c1ccccc1` (stereo not drawn): the melting point was found to be 175 °C.
In the case of `COCCC1CCN(c2ccc(C#N)c3ccccc23)CC1`, the melting point was in the range of 95 to 96 °C.
In the case of `Nc1cc(Oc2ccc(NC(=O)Nc3ccc(-c4ccncc4)c(C(F)(F)F)c3)cc2)ncn1`, the melting point was in the range of 131 to 135 °C.
Next, `CCc1nn2c(-c3cccnc3)ccnc2c1Cl`: 132 to 133 °C.
As for `O=[N+]([O-])c1ccc(Sc2cccc3cnccc23)cc1NCc1ccccc1`, the melting point was 153 to 154 °C.
Compound `COc1ccn(-c2nc(C)c(C(=O)NCc3ccc(F)c(F)c3)s2)c(=O)c1` came in with a melting point of 183 to 185 °C.
In the case of `CCOC(=O)c1cc(C(C)(C)C)n(-c2ccc(S(C)(=O)=O)cc2)n1`, the melting point is 175 to 178 °C.
In turn, `C[C@H](CC(=O)[C@H](Cc1ccccc1)OC(=O)c1ccccc1)C(=O)N1CCC[C@H]1C(=O)O` showed a melting point of 130 to 134 °C.
With `CCC1CC(=O)N(Cc2cccc(NS(C)(=O)=O)c2)N=C1c1ccc(OC)c(OC)c1` (stereo not drawn), the melting point worked out at 126 °C.
In turn, `COc1ccc(-c2ccc(CCC#N)cc2)cc1` displayed a melting point of 105 to 107 °C.
In turn, `COc1ccc(-n2[nH]c(Cc3c(C)n(C(=O)c4ccc(Cl)cc4)c4ccc(OC)cc34)cc2=O)cc1` gave a melting point of 101 to 103 °C.
Next, `CCOC(=O)c1sc2cc(OCc3ccccc3)ccc2c1Cl`: 98 to 100 °C.
Turning to `CCC[C@H]1C(=O)N(S(=O)(=O)c2cccc3ccccc23)[C@H]2CCN(S(C)(=O)=O)[C@H]12` (relative stereo), the melting point is 185 to 187 °C.
`COC(=O)c1cc2c3ccccc3n(C(=O)c3ccccc3)c2s1`: the melting point lay in the range of 150 to 151 °C.
The value for `CC(C)[C@H](NC(=O)OCc1ccccc1)C(=O)N[C@@H](Cc1ccccc1)C(=O)CSCc1ccco1` was 122 to 125 °C; that for `C#CCn1cc(Cl)cnc1=O` was 130 °C.
The value for `Cc1nc(-n2cc(-c3ccc(F)cc3)nn2)sc1C(=O)NCc1ccccc1` was 203 to 205 °C.
For `CC(C)C1CCC(C(=O)N[C@H](Cc2ccccc2)C(=O)O)CC1` (stereo partly drawn), the melting point was in the range of 129 to 130 °C.
`O=C1NC(=O)C(c2ccc(-c3ccccc3)cc2)(N2CCN(c3ccc(N4C(=O)CCC4=O)cc3)CC2)C(=O)N1` had a melting point of 310 to 311 °C.
The value for `O=c1[nH]c(=O)n(CCCCN2CCC(OC(c3ccccc3)c3ccccc3)CC2)c2cc([N+](=O)[O-])ccc12` was 214 to 215 °C; that for `CCCn1nc(C(F)(F)CCC)nc1Cc1ccc(-c2ccccc2-c2nnn[nH]2)nc1` was 140 to 141 °C; that for `Cc1cc(C)c(CP(=O)(Cc2c(C)cc(C)cc2C)Cc2c(C)cc(C)cc2C)c(C)c1` was 232 to 233 °C.
Next, `O=[N+]([O-])c1cc(Cl)c([N+](=O)[O-])c(Cl)c1`: 109 to 112 °C.
As to `O=[N+]([O-])c1ccc2c(c1OS(=O)(=O)C(F)(F)F)CCC2`, the melting point is 44 to 46 °C.
The compound `CCOC(=O)Cc1nn2c(-c3ccc(OC)cc3)nnc2c2ccccc12` registered a melting point of 201 to 202 °C.
`Cc1ccccc1-c1c(NC(=O)Nc2c(C)cccc2C(C)C)c(=O)oc2ccc(Cl)cc12` had a melting point of 237 to 238 °C.
As to `COc1ccc(-c2ccc(C(=O)Nc3ccc4cc(CN5CCCC5)cnc4c3C)cc2)cc1`, the melting point was in the range of 190 to 192 °C.
For the compound `CN(C)S(=O)(=O)c1ccc(-c2ccc(N)cc2)cc1`, the melting point was 178 to 180 °C.
For the compound `CCc1cc2cc(CC(=O)O)c(Cl)c(Cl)c2s1`, the melting point lay within 179 to 181 °C.
The value for `COc1cc(NC(=O)OC(C)(C)C)c([N+](=O)[O-])cc1C#Cc1ccccc1` was 129 °C; that for `CC1(C)CCC(C)(C)c2cc(OCc3ccc(C#N)cc3)ccc21` was 149 to 150 °C.
`COc1cc(Br)cc(C23CC4CC(CC(C4)C2)C3)c1OCc1ccccc1` gave a melting point of 89 to 91 °C.
In turn, `CC(NO)C(=O)OC(C)(C)C` (stereo not drawn) showed a melting point of 69 to 70 °C.
The compound `COc1ccc(CCNC(N)=O)cc1OC1CCCC1` gave a melting point of 136 to 137 °C.
In turn, `CC(=O)N1CCN=C1Nc1cc(C)nn1-c1ccc(F)cc1` yielded a melting point of 189 to 191 °C.
The value for `CN1Cc2c(C#CC(C)(C)O)ncn2-c2ccc(F)cc2C1=O` was 163 to 164 °C.
The value for `Cc1nc2c3c(c(C(=O)O)cc2n1C)CCC(c1ccccc1)O3` (stereo not drawn) was 323 to 326 °C.
In the case of `Nc1cc(C(=O)O)cc(S(N)(=O)=O)c1Oc1cccc(Cl)c1`, the melting point lay in the range of 239 to 240 °C.
In turn, `CCOC(=O)c1cn(C)nc1OCc1ccc(OCc2nc(-c3ccccc3)oc2C)c(OC)c1` yielded a melting point of 134 to 135 °C.
`O=C(O)CCn1cnc2c(Cl)ncnc21` came in with a melting point of 163 to 165 °C.
For the compound `CN=C(N)Nc1nc(-c2cccc(C(=O)NCCN)c2)cs1`, the melting point was 214 to 216 °C.
Next, `COc1ccc(C(=O)Nc2ccccc2C(O)C2CCCCN2)cc1` (stereo not drawn): 158 to 160 °C.
As for `C=CCn1c(Br)c(C[C@H](NC(C)=O)C(=O)OC)c2c(Br)c(OC)c(Br)cc21`, the melting point was in the range of 191 to 192 °C.
The value for `CN(C)CCCNC(=O)N1CCN(c2ccccc2)CC1` was 91 to 95 °C; that for `CN1C(=O)C(O)N(C2CCCCC2)C1=O` (stereo not drawn) was 140 to 141 °C.
`CC(Oc1ncn(-c2cccc(Cl)c2)n1)C(N)=O` (stereo not drawn) gave a melting point of 143 to 145 °C.
`NS(=O)(=O)c1ccc(-n2nc(C(F)(F)F)cc2-c2nc3ccc(F)cc3s2)cc1` registered a melting point of 260 to 261 °C.
Next, `CCOC(=O)C1=C(COCCn2c(C)nc3ccccc32)NC2=C(C(=O)C(C)(C)CC2)C1c1ccccc1Cl` (stereo not drawn): 118 to 120 °C; `CC(c1ccncc1Cl)C(O)(Cn1cncn1)c1ccc(F)cc1F` (stereo not drawn): 182 to 184 °C.
For the compound `CN(c1cccc2cc(C3=NCC(C)(CN4CCN(S(C)(=O)=O)CC4)S3)[nH]c12)S(=O)(=O)c1cccs1` (stereo not drawn), the melting point lay within 209 to 210 °C.
In turn, `COc1cc(CO)c(N)c(OC)c1OC` gave a melting point of 56 to 58 °C.
`CCCCCCCCCCCCCCCCCCNC(=O)c1cc(O)cc(O)c1` gave a melting point of 114 to 117 °C.
Next, `O=c1ccc(-c2cccc(-n3ccnc3)c2)n[nH]1`: 234 to 236 °C; `COc1ccc(CCNC(=O)CCc2ccccc2C(=O)NCCc2ccccc2)cc1OC`: 122 to 123 °C; `COC(=O)c1ccc(COc2cc(F)ccc2N)c(F)c1`: 92 to 95 °C.
In turn, `C=CCSc1nnc(OC)c(C)c1C` gave a melting point of 51 to 53 °C.
Consider `CCOC(=O)CCc1cccc(-c2c(CC(=O)Nc3ccc(F)cc3C(F)(F)F)c(=O)oc3ccccc23)c1`, for which the melting point is 163 to 164 °C.
With `COC(=O)c1ccc(Br)cc1CSC`, the melting point was 79.3 °C.
In turn, `Cc1ccc(S(=O)(=O)n2ccnc2C(O)(c2ccccc2)c2ccc(Cl)cc2)cc1` (stereo not drawn) showed a melting point of 116 to 118 °C.
`CC(=O)OCC(=O)C1C(C)CC2C3CC(Cl)C4=CC(=O)C=CC4(C)C3(Cl)C(O)CC21C` (stereo not drawn): the melting point was 238 °C.
The value for `C=C(C)c1nc2cc3c(cc2[nH]1)NC(=O)C3(C)C` was 270 to 273 °C; that for `O=C(c1ccc(F)cc1)C1CCN(CCCn2c(=O)[nH]c3cc(Cl)c(Cl)cc32)CC1` was 198 to 202 °C.
Compound `O=C1C=C(C2CCC(c3ccc(Cl)cc3)CC2)C(=O)c2ccccc21` (stereo not drawn) had a melting point of 147 to 149 °C.
`O=S1(=O)Cc2ccc(F)cc2C(c2ccc(F)cc2)=NN1CCCc1ccccc1` returned a melting point of 163 to 167 °C.
In turn, `COc1cc2c(cc1OC)C(O)(c1ccccn1)CC(C)(C)CO2` (stereo not drawn) showed a melting point of 90 °C.
The value for `O=C1c2ccccc2C(O)N1CCO[N+](=O)[O-]` (stereo not drawn) was 143 to 145 °C; that for `CCCc1c(OCc2ccccc2)ccc2c1OC(CCC(=O)O)(CCC(=O)O)CC2=O` was 202 to 205 °C.
Next, `CCOP(=O)(CNCc1cccnc1-c1cc(C(C)(C)C)c(O)c(C(C)(C)C)c1)OCC`: 100 to 101 °C; `Cn1nc(N)c2c(=O)n3c(nc21)SCC3`: 280 to 283 °C.
The value for `Nc1ccc(OCC2CN(c3ccccn3)C(=O)O2)cc1` (stereo not drawn) was 141 to 143 °C; that for `O=C1NC(=O)C(CC#Cc2ccc(Cl)cc2)(Sc2ccc(Cl)cc2)S1` (stereo not drawn) was 144 to 146 °C.
Take `COC(=O)CCCCc1cc2nc(Cl)ccc2n1S(=O)(=O)c1ccccc1`: the melting point amounted to 73 °C.
In turn, `Cc1cccc2c1NC(=O)C2` registered a melting point of 206 to 207 °C.
The value for `CN1C(=O)CN=C(c2ccccc2F)c2cc(NC(=O)N3CCSC3)ccc21` was 185 °C; that for `COC(=O)c1c(Sc2ccc(Cl)cc2)c2cc(C)ccc2n1C` was 110 to 111 °C.
Next, `CCN(CC)c1ccc([N+](=O)[O-])cn1`: 75 to 76 °C; `O=C(O)CN1C(=O)C(=Cc2ccc(OCc3ccc(F)cc3F)c(OCc3ccccc3)c2)SC1=S`: 236 to 239 °C; `CN(C)c1ccc(/C=C/c2ccc(F)cc2F)cc1`: 139 to 140 °C.
In turn, `COc1ccc(C(=O)Nn2c(=O)[nH]c3ccccc3c2=O)cc1` returned a melting point of 289 °C.
In turn, `OC1C(COC2CC2)OC(n2cnc3c(NC4CCCC4)ncnc32)C1O` (stereo not drawn) came in with a melting point of 126 to 128 °C.
Regarding `Cc1noc(NS(=O)(=O)c2ccccc2-c2ccc(-c3ncco3)cc2-c2ncco2)c1C`, the melting point is 108 to 113 °C.
